Results on 24 compounds are retold here after patent US9687479B2, “Multisubstituted aromatic compounds as serine protease inhibitors” (VERSEON CORPORATION, priority 2013, dated 2017).

A word on the IC50: it is the concentration that inhibits the measured activity by half. Low values mean greater potency in that assay, high ones weaker potency in that assay.

In the experiment the target is Human thrombin (Homo sapiens (Human), UniProt P00734). The experiment can be described thus: Thrombin protease activity inhibition assay (chromogenic substrate S-2238). The class given is biochemical. The following applies: 3 nM thrombin, 125 μM S-2238, 10 min pre-incubation, RT. Summed up: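 Ten-point, three-fold serial dilutions of compound tested against 3 nM enzyme at RT in Tris buffer (0.05 M, pH 7.4) with 0.015 M NaCl and 0.01% PEG-8000.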
Regarding `O=c1c(-c2cc(NCc3ccc(Cl)s3)[nH]n2)cccn1Cc1ccco1` [Cmpd 222, 3-(5-[(5-chlorothiophen-2-yl)methyl]amino-1H-pyrazol-3-yl)-1-(furan-2-ylmethyl)-1,2-dihydropyridin-2-one], the IC50 is > 100 µM.
To `O=c1c(-c2cc(NCc3ccc(Cl)s3)[nH]n2)cccn1Cc1ccoc1` [Cmpd 223, 3-(5-[(5-chlorothiophen-2-yl)methyl]amino-1H-pyrazol-3-yl)-1-(furan-3-ylmethyl)-1,2-dihydropyridin-2-one] belongs 1 to 10 µM; to `O=c1c(-c2cc(NCc3ccc(Cl)s3)[nH]n2)cccn1Cc1cccc2ccccc12` [Cmpd 224, 3-(5-[(5-chlorothiophen-2-yl)methyl]amino-1H-pyrazol-3-yl)-1-(naphthalen-1-ylmethyl)-1,2-dihydropyridin-2-one], > 100 µM; to `O=c1c(-c2cc(NCc3ccc(Cl)s3)[nH]n2)cccn1Cc1ccc2ccccc2c1` [Cmpd 225, 3-(5-[(5-chlorothiophen-2-yl)methyl]amino-1H-pyrazol-3-yl)-1-(naphthalen-2-ylmethyl)-1,2-dihydropyridin-2-one], > 100 µM.
To `O=c1c(-c2cc(NCc3ccc(Cl)s3)[nH]n2)cccn1Cc1cccnn1` [Cmpd 226, 3-(5-[(5-chlorothiophen-2-yl)methyl]amino-1H-pyrazol-3-yl)-1-(pyridazin-3-ylmethyl)-1,2-dihydropyridin-2-one] belongs 10 to 100 µM; to `O=c1c(-c2cc(NCc3ccc(Cl)s3)n[nH]2)cccn1Cc1cccnc1` [Cmpd 228, 3-(5-[(5-chlorothiophen-2-yl)methyl]amino-1H-pyrazol-3-yl)-1-(pyridin-3-ylmethyl)-1,2-dihydropyridin-2-one], 1 to 10 µM.
`O=c1c(-c2cc(NCc3ccc(Cl)s3)[nH]n2)cccn1Cc1ncccn1` [Cmpd 230, 3-(5-[(5-chlorothiophen-2-yl)methyl]amino-1H-pyrazol-3-yl)-1-(pyrimidin-2-ylmethyl)-1,2-dihydropyridin-2-one]: the IC50 was > 100 µM.
On to `O=c1c(-c2cc(NCc3ccc(Cl)s3)n[nH]2)cccn1Cc1cccs1` [Cmpd 231, 3-(5-[(5-chlorothiophen-2-yl)methyl]amino-1H-pyrazol-3-yl)-1-(thiophen-2-ylmethyl)-1,2-dihydropyridin-2-one], for which the IC50 lay within 1 to 10 µM.
Consider `O=c1c(-c2cc(NCc3ccc(Cl)s3)[nH]n2)cccn1Cc1ccsc1` [Cmpd 232, 3-(5-[(5-chlorothiophen-2-yl)methyl]amino-1H-pyrazol-3-yl)-1-(thiophen-3-ylmethyl)-1,2-dihydropyridin-2-one], for which the IC50 was 1 to 10 µM.
For `O=C(Cn1cccc(-c2cc(NCc3ccc(Cl)s3)n[nH]2)c1=O)N1CCOCC1` [Cmpd 233, 3-(5-[(5-chlorothiophen-2-yl)methyl]amino-1H-pyrazol-3-yl)-1-[2-(morpholin-4-yl)-2-oxoethyl]-1,2-dihydropyridin-2-one] the value was 1 to 10 µM; for `O=c1c(-c2cc(NCc3ccc(Cl)s3)[nH]n2)cccn1CCN1CCOCC1` [Cmpd 234, 3-(5-[(5-chlorothiophen-2-yl)methyl]amino-1H-pyrazol-3-yl)-1-[2-(morpholin-4-yl)ethyl]-1,2-dihydropyridin-2-one], 10 to 100 µM; for `Cn1cccc(-c2cc(NCc3ccc(Cl)s3)n[nH]2)c1=O` [Cmpd 236, 3-(5-[(5-chlorothiophen-2-yl)methyl]amino-1H-pyrazol-3-yl)-1-methyl-1,2-dihydropyridin-2-one], 10 to 100 µM.
Take `CN(C)c1cc(-c2ccc[nH]c2=O)nn1C(=O)c1ccco1` [Cmpd 239, 3-[5-(dimethylamino)-1-[(furan-2-yl)carbonyl]-1H-pyrazol-3-yl]-1,2-dihydropyridin-2-one]: the IC50 is > 100 µM.
To `CN(C)c1cc(-c2cccn(Cc3ccccn3)c2=O)nn1C(=O)c1ccco1` [Cmpd 240, 3-[5-(dimethylamino)-1-[(furan-2-yl)carbonyl]-1H-pyrazol-3-yl]-1-(pyridin-2-ylmethyl)-1,2-dihydropyridin-2-one] belongs > 100 µM; to `Nc1ccccc1C(=O)n1nc(-c2ccc[nH]c2=O)cc1NCc1ccc(Cl)s1` [Cmpd 241, 3-1-[(2-aminophenyl)carbonyl]-5-[(5-chlorothiophen-2-yl)methyl]amino-1H-pyrazol-3-yl-1,2-dihydropyridin-2-one], < 0.1 µM; to `O=C(c1ccccc1Cl)n1nc(-c2cccn(Cc3cccnn3)c2=O)cc1NCc1ccc(Cl)s1` [Cmpd 245, 3-1-[(2-chlorophenyl)carbonyl]-5-[(5-chlorothiophen-2-yl)methyl]amino-1H-pyrazol-3-yl-1-(pyridazin-3-ylmethyl)-1,2-dihydropyridin-2-one], < 0.1 µM.
To `O=C(c1ccccc1Cl)n1nc(-c2cccn(Cc3ccccn3)c2=O)cc1NCc1ccc(Cl)s1` [Cmpd 246, 3-1-[(2-chlorophenyl)carbonyl]-5-[(5-chlorothiophen-2-yl)methyl]amino-1H-pyrazol-3-yl-1-(pyridin-2-ylmethyl)-1,2-dihydropyridin-2-one] belongs < 0.1 µM.
On to `O=C(c1ccccc1Cl)n1nc(-c2cccn(Cc3ncccn3)c2=O)cc1NCc1ccc(Cl)s1` [Cmpd 249, 3-1-[(2-chlorophenyl)carbonyl]-5-[(5-chlorothiophen-2-yl)methyl]amino-1H-pyrazol-3-yl-1-(pyrimidin-2-ylmethyl)-1,2-dihydropyridin-2-one], for which the IC50 was < 0.1 µM.
For `O=C(c1ccccc1Cl)n1nc(-c2cccn(Cc3cccs3)c2=O)cc1NCc1ccc(Cl)s1` [Cmpd 250, 3-1-[(2-chlorophenyl)carbonyl]-5-[(5-chlorothiophen-2-yl)methyl]amino-1H-pyrazol-3-yl-1-(thiophen-2-ylmethyl)-1,2-dihydropyridin-2-one] the value was < 0.1 µM.
In the case of `O=C(c1ccccc1Cl)n1nc(-c2cccn(Cc3ccsc3)c2=O)cc1NCc1ccc(Cl)s1` [Cmpd 251, 3-1-[(2-chlorophenyl)carbonyl]-5-[(5-chlorothiophen-2-yl)methyl]amino-1H-pyrazol-3-yl-1-(thiophen-3-ylmethyl)-1,2-dihydropyridin-2-one], the IC50 is < 0.1 µM.
For the compound `O=C(c1ccccc1Cl)n1nc(-c2cccn(CCN3CCOCC3)c2=O)cc1NCc1ccc(Cl)s1` [Cmpd 252, 3-1-[(2-chlorophenyl)carbonyl]-5-[(5-chlorothiophen-2-yl)methyl]amino-1H-pyrazol-3-yl-1-[2-(morpholin-4-yl)ethyl]-1,2-dihydropyridin-2-one], the 50% inhibitory concentration (IC50) is < 0.1 µM.
Consider `CC(C)(C)c1ccc(C(=O)n2nc(-c3ccc[nH]c3=O)cc2NCc2ccc(Cl)s2)cc1` [Cmpd 253, 3-1-[(4-tert-butylphenyl)carbonyl]-5-[(5-chlorothiophen-2-yl)methyl]amino-1H-pyrazol-3-yl-1,2-dihydropyridin-2-one], for which the half-inhibitory concentration (IC50) is < 0.1 µM.
Take `Cn1cccc(-c2cc(NCc3ccc(Cl)s3)n(C(=O)c3ccc(C(C)(C)C)cc3)n2)c1=O` [Cmpd 254, 3-1-[(4-tert-butylphenyl)carbonyl]-5-[(5-chlorothiophen-2-yl)methyl]amino-1H-pyrazol-3-yl-1-methyl-1,2-dihydropyridin-2-one]: the IC50 was < 0.1 µM.
To `Nc1cc(-c2ccc[nH]c2=O)nn1C(=O)c1ccco1` [Cmpd 255, 3-5-amino-1-[(furan-2-yl)carbonyl]-1H-pyrazol-3-yl-1,2-dihydropyridin-2-one] belongs 1 to 10 µM.
